From patent publication US20110150959A1, “WIPE WITH ODOUR CONTROL SUBSTANCE” (SCA Hygiene Products AB, priority 2008, published 2011)

Experiments:
[1] = Peroxide value, AOCS Official Method Cd 8-53; format: physicochemical; details: Trial 2 lipids after ozonization; lipids used for treatment of wipes
Method: The degree of oxidation was tested by determining the peroxide value according to the test method AOCS Official Method Cd 8-53 Surplus 2003. The peroxide value for both the starting oils/fats and the ozonized oils/fats was determined.

[2] = Odour reduction by lipid-treated fluff pulp, headspace SPME-GC/MS; details: pulp with 30% by weight lipid; 1000 ng/ml odour substance; 3 h + 0.5 h at 35° C.; vs untreated pulp
Method: Sheets of sulfate pulp from Weyerhaeuser Inc., with the designation NB416, were impregnated with a solution of the tested oil/fat in hexane. To a pulp sheet weighing 10 g was added a solution of 4.29 g oil in 4.29 g hexane. The solution was evenly distributed over the surface of the sheets. When the hexane had evaporated the sheets contained 30% by weight oil/fat and 70% by weight pulp fibers. The treated sheets were defibrated in a Braun multimixer MX32 to produce fluff pulp.
1 g of treated pulp was put in a 60 ml vial, after which 3.9 ml of 0.01 M phosphate buffered saline solution pH 7.4 from Sigma was added. Then 0.1 ml PEG300 with DMS (dimethyl sulfide), DMDS (dimethyl disulfide) and IVA (isovaleric aldehyde) was added so that the concentration of each odour substance in the final solution was 1000 ng/ml.
After 3 h at 35° C. a SPME fiber (Supelco), 75 μm Carboxen-PDMS, was injected into the headspace above the pulp and after an additional 0.5 h the SPME fiber was analyzed with gas chromatography (GC), Thermo Finnigan Trace, with a MS detector. The peak area of each odour substance was determined for samples with treated pulp and the untreated reference pulp. The GC settings were:
Temperature program for GC: 30° C. (7 min), 3° C./min-70° C. (0 min), 40° C./min-250° C. (7 min). Column: ZB-624 (Zebron), 30 m, 0.25 mm i.d. 1.40 μm film thickness Inlet temperature: 250° C. Transfer line: 220° C.
MS: SIM (single ion monitoring). When DMS, IVA and DMDS were analyzed the following mass numbers were detected: 45, 46, 47, 57, 58, 61, 62, 79, 86 and 94.
The odour reduction was determined by comparing the peak area of the tested sample with the same peak area achieved when testing the untreated reference pulp. The calculation of the odour reduction in percent was made by the equation:
Odour reduction=100×(1−Actual peak area/Peak area of sample with untreated pulp)
These ozonized lipids were tested for their odour reducing effect on treated pulp in the same manner as under Trial 1 above. The only exception in the laboratory procedure was the method for treatment of the pulp with Acolectin.

[3] = Odour reduction by lipid-treated spunlaced nonwoven wipes, headspace SPME-GC/MS; details: 1 g spunlaced nonwoven treated with 2 g lipid; 1000 ng/ml odour compound
Method: A spunlaced nonwoven with the trade name Fibrella 7160, available from Suominen (Finland) was used in these experiments. This material, which consists of about 60% polypropylene fibres and 40% rayon fibres, has a basis weight of about 50 g/m^2. Pieces with a weight of 1 g and an area of 0.020 m^2 were cut from the spunlaced nonwoven sheet. These pieces were then treated with lipids. 2 g of the lipid was dissolved in 4 g of either hexane or acetone and evenly distributed on the piece of nonwoven. Acetone was used to dissolve all ozonated oils and oleic acid while the other not ozonated oils where dissolved in hexane. After several hours, when the solvent had evaporated, the nonwoven pieces were folded and inserted into 60 ml vials, used for SPME analysis. The vials were then flushed with nitrogen gas and sealed.
Vials with a volume of 60 ml containing 1 g spunlaced nonwoven treated with 2 g lipid were used in these tests. The laboratory procedure was the same as earlier described when evaluating the odour reduction of fluffed pulp, see page 10-11. To each vial was added 3.9 ml phosphate buffered saline solution, pH 7.4 and 0.1 ml PEG300 with DMS, DMDS and IVA. The total concentration of each odour compound was 1000 ng/ml.

[4] = autoxidation at 100° C., fatty acids not treated with antioxidants; cited from earlier work

Compound	Peroxide value [1]	Reduction of odour substances in %, DMDS [2]	Reduction of odour substances in %, DMS [2]	Reduction of odour substances in %, IVA [2]	Reduction of odour substances in %, DMDS [3]	Reduction of odour substances in %, DMS [3]	Reduction of odour substances in %, IVA [3]	Relative rate of oxidation [4]
CCCCCCCC/C=C\CCCCCCCC(=O)O [Oleic acid, oleic acid]	3.1 meqv./kg	19.2%	67.5%	9.3%	83.6%	67.4%	74.5%	6
CCCCC/C=C\C/C=C\CCCCCCCC(=O)O [Linoleic acid]	–	–	–	–	–	–	–	64
CCCCC/C=C\C/C=C\CCCCCCCC(=O)OCC [Ethyl linoleate, ethyl linoleate]	–	0%	0%	0%	–	–	–	–
CCCCCCCCCCCCCCCCCC(=O)O [Stearic acid]	–	–	–	–	–	–	–	0.6
